{
  "source": "paper PMC5460201",
  "about": "“Bacterial protease uses distinct thermodynamic signatures for substrate recognition” (Scientific Reports, 2017)",
  "molecules": {"B1": {"name": "Porphyromonas endodontalis dipeptidyl peptidase 11, PeDPP11_(22-717) S652A (enzyme)", "chain": "DGGMWLMQQINGQVARMKSLGMQLEAADIYNPNGSSLKDAVVMFDGGCTGVLVSNQGLLLTNHHCGYDQIQKHSSVQHNYLKDGFWSYSLAEELVNPGLEVEIVDEITDVTAAVKKELERIKKPSGLEFLSPRYLSSLAPEIVGKKAASRPGYRYEIKAFYGGNRYYMFTKKVFRDVRLVAAPPSSIGKFGSDTDNWAWPRHTGDFSIFRLYADKNGNPAEYSKDNVPYRPKRWVKVNAQGVKEGDFALIMGYPGTTYKFFTADEVTEWSEIDNNIRIEMRGILQDVMLREMLADPKINIMYAAKYASSQNGYKRAQGANWAIRRRSLREIKLAQQQEVLAWAKQKGIATTEEAVRAISKAIEGRQDLRMRQRYLLEGILMGIEMSNAPAADSDIADHWDDPARREAGLQSIRKQFEAFFNKDYSPEVEKDQLAIALLTRYAERIPAEKQPISIREGIAEYGSAKAYVEMIFDKSIYASRERFEEFMKNPDRDRLLRDPMSRFAASVAYEHQKLAKEVAAFDAPLAAAQRSYVASVLDMKGQPNLAPDANLTLRFTYGEIKGYQPRDVVTYGAKSTLEGVMEKEDPNNWEYVVDPKLKALYEAKNYGRYANSDGSMPVNFCATTHTTGGNAGSPVMNARGELIGLNFDRNWEGVGGDIEYLPNYQRSIILDIRYLLFIIDKFAGCQRLIDEIQPQF", "notes": "also called PeDPP11_(altconf); source: E. coli BL21(DE3)pLysS, purified (HisTrap, SEC)"}},
  "key": {"[1]": {"biological_target": "T1, PeDPP11 (PeDPP11_22-717 S652A) (Porphyromonas endodontalis, UniProt F8WQK8, S652A)", "T1 construct": "genes encoding for C-terminal 6xHis-tagged PeDPP11_22-717 S652A and PgDPP11_22-720 S655A in the pET-22b(+) vector; 6xHis (C); made in house; host or cells: E. coli BL21(DE3)pLysS", "assay": "Isothermal titration calorimetry (ITC) of peptide binding to PeDPP11", "method": "All experiments were carried out in 10 mM Hepes-NaOH pH 7.4, 100 mM NaCl. Both the enzymes and the peptides were dissolved in the same buffer. The bindings were analysed with a MicroCal^TM iTC200 microcalorimeter (GE Healthcare, Life Sciences) equilibrated at the respective temperature. […] Every injection was carried out over a period of 4 s with a spacing of 110 s between the injections. […] These corrected values were plotted against the ratio peptide vs. protein concentration in the cell to generate the binding isotherm. Nonlinear least-squares fitting using Origin version 7.0 (Microcal) was used to obtain the association constants (K a), heats of binding (ΔH) and stoichiometries. […] The reported values are averages of at least two independent measurements."}, "[2]": {"system": "cAMP-dependent protein kinase A (PKA-C)", "conditions": "NMR and molecular dynamics; ref [40]; cited from earlier work", "source_text": "Due to experimental challenges, the role of conformational entropy in molecular recognition by proteins has begun to be elucidated only recently, mainly by nuclear magnetic resonance (NMR) relaxation methods. Using NMR techniques and molecular dynamics simulations, Veglia and colleagues observed in cAMP-dependent protein kinase A (PKA-C) a similar binding mode to that of DPP11. […] Conversely, binding of the inhibitor PKI5-24 (protein ki ..."}, "[3]": {"biological_target": "Porphyromonas endodontalis dipeptidyl peptidase 11, PeDPP11_(22-717) S652A (Porphyromonas endodontalis) (UniProt F8WQK8)", "assay": "ITC; peptide injected into PeDPP11 in the cell; 10 mM Hepes-NaOH pH 7.4, 100 mM NaCl; 25 °C; one-site binding model"}, "SEC-MALS": {"biological_target": "the molecule itself", "assay": "SEC-MALS"}},
  "note": "Peptide text beside a SMILES is read from it.",
  "data": [
    {"molecule": "CC(C)C[C@H](N)C(=O)N[C@@H](CC(=O)O)C(=O)N[C@H](C(=O)N[C@@H](Cc1c[nH]c2ccccc12)C(=O)O)C(C)C", "note": "[LDVW, Leu-Asp-Val-Trp] (H-LDVW-OH)", "values": [
      {"measurement": "Kd", "setting": "[1]; 15 °C (288 K), 10 mM Hepes-NaOH pH 7.4, 100 mM NaCl, averages of at least two independent measurements", "value": "9000 ± 700", "unit": "nM"}
    ]},
    {"molecule": "CC(C)C[C@H](N)C(=O)N[C@@H](CC(=O)O)C(=O)O", "note": "[LD] (H-Leu-Asp-OH)", "values": [
      {"measurement": "Kd", "setting": "[1]; 10 °C (283 K), 10 mM Hepes-NaOH pH 7.4, 100 mM NaCl, 1.28 mM LD to 120 μM PeDPP11, averages of at least two independent measurements", "value": "500 ± 100", "unit": "nM"},
      {"measurement": "Kd", "setting": "[1]; 20 °C (293 K), 10 mM Hepes-NaOH pH 7.4, 100 mM NaCl, averages of at least two independent measurements", "value": "1000 ± 300", "unit": "nM"}
    ]},
    {"molecule": "Arg-Asp [RD]", "values": [
      {"measurement": "ΔH bind", "setting": "[1]; 25 °C, 10 mM Hepes-NaOH pH 7.4, 100 mM NaCl, 600 μM LDVW to 60 μM, 810 μM LD to 75 μM, 1 mM LDL to 75 μM, 1.0 mM RD to 80 μM PeDPP11, averages of at least two independent measurements", "value": -15.5, "unit": "kJ/mol"},
      {"measurement": "change in entropy on binding", "setting": "[1]; 25 °C, due to water displacement caused by peptide binding and concomitant domain motion", "value": "favourable change in entropy"},
      {"measurement": "thermodynamic signature of binding", "setting": "[1]; 25 °C, pH 7.4", "value": "enthalpy-driven process"}
    ]},
    {"molecule": "PKI5-24", "values": [
      {"measurement": "effect on PKA-C protein dynamics", "setting": "[2]", "value": "stabilizes the protein, quenching the enzyme dynamics"},
      {"measurement": "thermodynamic signature of binding to PKA-C", "setting": "[2]", "value": "enthalpically driven"}
    ]},
    {"molecule": "PLN1-20: substrate PLN1-20 (phospholamban) of PKA-C (MEKVQYLTRSAIRRASTIEM; UniProt P26678 1-20, looked up, fragment)", "values": [
      {"measurement": "effect on PKA-C protein dynamics", "setting": "[2]", "value": "increased conformational dynamics"},
      {"measurement": "thermodynamic signature of binding to PKA-C", "setting": "[2]", "value": "entropically driven"}
    ]},
    {"molecule": "dipeptide Arg-Asp", "values": [
      {"measurement": "dH", "setting": "[3]", "value": -15.5, "unit": "kJ/mol"}
    ]},
    {"molecule": "dipeptide LD", "values": [
      {"measurement": "dH", "setting": "[3]", "value": -22, "unit": "kJ/mol"}
    ]},
    {"molecule": "substrate peptide LDL", "values": [
      {"measurement": "dH", "setting": "[3]", "value": 17, "unit": "kJ/mol"}
    ]},
    {"molecule": "substrate peptide Leu-Asp-Val-Trp", "values": [
      {"measurement": "dH", "setting": "[3]", "value": 23.8, "unit": "kJ/mol"}
    ]},
    {"molecule": "B1", "values": [
      {"measurement": "stoichiometry N", "setting": "SEC-MALS", "value": 2}
    ]}
  ]
}
